From US11261429B2, “Enriched and expanded human cord blood stem cells for treatment of hematological disorders” (ICAHN SCHOOL OF MEDICINE AT MOUNT SINAI, priority 2013, dated 2022)
Where “and” joins values, the source holds several entries; their conditions need not be identical. Equal entries are not always repeated. Entries after “also recorded” stand apart in the source; their conditions may differ.

Columns and labels:
CB CD34+ cells [1] = assay: Ex vivo expansion of CB CD34+ cells with HDACIs, phenotypic analysis by flow cytometry; type: cell-based, human; details: for fold expansion of CD34+ cells / fold expansion of CD34+CD90+ cells: cytokines
Text: CB collections were purchased from the Placental Blood Program at the New York Blood Center. CB-MNCs were isolated by Ficoll-Hypaque density centrifugation, and CD34+ cells were purified by immunotnagnetic selection as previously described (Chaurasia et al., “Chromatin-Modifying Agents Promote the Ex vivo Production of Functional Human Erythroid Progenitor Cells,” Blood 117:4632-4641 (2011), which is hereby incorporated by reference in its entirety). Highly purified (90%-98%) PCs (4.0-5.0×10^4) were cultured in SF Stemline II (Sigma-Aldrich) culture medium or IMDM (Lonza) containing 30% FBS (HyClone Laboratories) supplemented with 150 ng/ml SCF, 100 ng/ml fms-like tyrosine kinase receptor 3 (FLT3 ligand), 100 ng/ml thrombopoietin (TPO), and 50 ng/ml interleukin 3 (IL-3) (R&D Systems) and incubated in a humidified incubator maintained at 37° C. with 5% CO2. […] The cell populations studied and the various conditions under which they were cultured are referred to by specific terms listed in Table 1. Viable PC and cultured cells were enumerated using the trypan blue exclusion method. The fold expansion of CD34+ cells or subpopulations was calculated based on the number of CD34+ cells determined to be present in an individual CB collection and the number of CD34+ cells that would have been generated if all of the CD34+ cells within that primary CB collection were cultured using the various culture conditions described. PC or cultured cells expanded in the presence or absence of HDACIs were stained with an anti-human CD34 mAb or an isotype-matched control mAb and analyzed using a FACSCanto II (BD). CD34+ cells were re-isolated using a CD34+ cell isolation kit, as previously described, for further phenotypic and functional analyses. All mAbs were purchased from BD Biosciences and Cell Signaling Technology. Phenotypic analyses ([…], […], and […]7) of the ex vivo-expanded cells after 7 days in control cultures or cytokines plus an HDACI were performed as previously described (Chaurasia et al., “Chromatin-Modifying Agents Promote the Ex vivo Production of Functional Human Erythroid Progenitor Cells,” Blood 117:4632-4641 (2011), which is hereby incorporated by reference in its entirety).

HDAC2 = assay: HDAC protein levels in CB-MNCs, Western blot densitometry; type: cell-based, human; details: 24 hr, SCR 8 μM, C433 80 μM, VPA 1.25 mM
HDAC5 = assay: as above; type: cell-based, human; details: 24 hr, SCR 8 μM, C433 80 μM, VPA 1.25 mM
Text: Cellular proteins were separated by SDS-PAGE using Novex (Invitrogen) and transferred by iBlot (Invitrogen). The membranes were probed with mAbs against individual histone deacetylases (HDAC1, HDAC2, HDAC3, HDAC4, HDAC5, HDAC6, and β-actin; Cell Signaling Technology) and developed using a chemiluminescence system with HRP-conjugated secondary antibodies (Amersham Biosciences) according to the manufacturer's instructions.

ALDH activity = ALDH activity (Aldefluor) in expanded CB CD34+ cells; type: cell-based, human; details: cytokines, 7 days
Text: Increased ALDH activity is a characteristic of primitive hematopoietic cells and cancer stem cells (Hess et al., Functional Characterization of Highly Purified Human Hematopoietic Repopulating Cells Isolated According to Aldehyde Dehydrogenase Activity,” Blood 104:1648-1655 (2004); Lioznov et al., “Aldehyde Dehydrogenase Activity as a Marker for the Quality of Hematopoietic Stem Cell Transplants,” Bone Marrow Transplant 35:909-914 (2005); Storms et al., “Distinct Hematopoietic Progenitor Compartments are Delineated by the Expression of Aldehyde Dehydrogenase and CD34,” Blood 106:95-102 (2005); Aguila et al., “SALL4 is a Robust Stimulator for the Expansion of Hematopoietic Stem Cells,” Blood 118:576-585 (2011), which are hereby incorporated by reference in their entirety). To identify cell populations with high ALDH activity, an Aldefluor kit (StemCell Technologies Inc.) was used according to the manufacturer's instructions, Cells (1×10^6/ml) were suspended in assay buffer, then half of the cells were added to the Aldefluor substrate (test sample) and the remaining half was added to DEAB inhibitor (control sample). The test and control samples were incubated for 40 minutes at 37° C. Cells were subsequently stained with CD34-APC and/or CD117-PE mAbs or an isotype-matched IgG for an additional 20 minutes. Cells were washed and analyzed by a BD FACSCanto II Flow Cytometer.

NSG mice = assay: Teratoma formation assay in NSG mice; type: in vivo; details: 1×10^6 re-isolated CD34+ cells subcutaneously, 8 weeks
Method: CD34+ cells (1×10^6) re-isolated from control cultures or cultures containing VPA or a similar number of ES cells were suspended in 100 μl of PBS. These cells were mixed with an equal volume of ice-cold Matrigel and injected subcutaneously into the right hind limb of three NSG mice per group (re-isolated CD34+ cells from control cultures, VPA-treated cultures, and ES cells). The mice were observed weekly for teratoma formation and sacrificed after 8 weeks. Teratomas were dissected, fixed, sectioned, and stained with H&E and examined morphologically (O'Connor et al., “Functional Assays for Human Embryonic Stem Cell Pluripotency,” Methods Mol Biol. 690:67-80 (2011), which is hereby incorporated by reference in its entirety).

CB CD34+ cells [2] = assay: Ex vivo expansion of CB CD34+ cells with HDACIs, phenotypic analysis by flow cytometry; type: cell-based, human; details: VPA alone (no cytokines), SF, 7 days after 16 h priming
[3] = SF cultures containing VPA, 7 days

CCCC(CCC)C(=O)O [VPA, valproic acid]
percentage of CD34+CD90+ cells (CB CD34+ cells [1]; 7 days of culture with cytokines plus HDACI): 75.2%±10.7% and 74.2±9.8%
fold expansion of CD34+ cells (CB CD34+ cells [1]; SC conditions, 7 days): 78 fold
fold expansion of CD34+CD90+ cells (CB CD34+ cells [1]; SC conditions, 7 days): 89 fold
fold expansion of CD34+ cells (CB CD34+ cells [1]; SF conditions, 7 days): 213 fold
fold expansion of CD34+CD90+ cells (CB CD34+ cells [1]; SF conditions, 7 days): 20,202 fold
CD34+CD90+ cells expressing CD45RA (CB CD34+ cells [1]; [3]): 1.9%±2.1%
CD34+CD90+ cells expressing CD49f (CB CD34+ cells [1]; [3]): 47.0%±4.4%
B Cells (CD19) (CB CD34+ cells [1]; VPA-treated cells after 7 days): 0.5±0.1%
CD14+ cells (CB CD34+ cells [1]; VPA-treated cells after 7 days): 3.9±1.5%
CD41+ cells (CB CD34+ cells [1]; VPA-treated cells after 7 days): 8.9±2.0%
Glycophorin+ cells (CB CD34+ cells [1]; VPA-treated cells after 7 days): 17.0±5.4%
T Cells (CD3) (CB CD34+ cells [1]; VPA-treated cells after 7 days): 0.2±0.3%
HDAC2 expression relative to b-ACTIN (%) (HDAC2): 45.8 ± 25.2%
HDAC5 expression relative to b-ACTIN (%) (HDAC5): 21.4 ± 10.7%
Frequency of ALDH+ cells (ALDH activity; SC cultures): 41.7 ± 3.3^A %
Frequency of ALDH+CD34+ cells (ALDH activity; SC cultures): 26.1 ± 5.5^A %
Frequency of ALDH+CD34+CD117+ cells (ALDH activity; SC cultures): 29.4 ± 1.4^A %
Frequency of ALDH+ cells (ALDH activity; SF cultures): 86.6 ± 7.4^A %
Frequency of ALDH+CD34+ cells (ALDH activity; SF cultures): 71.1 ± 3.1^A %
Frequency of ALDH+CD34+CD117+ cells (ALDH activity; SF cultures): 51.3 ± 4.0^A %
teratoma formation (NSG mice): did not form teratomas; also recorded: neither control nor VPA treated CD34+ cells formed teratomas
fold expansion of CD34+ cells per CB collection (CB CD34+ cells [2]): 9.0 fold
fold expansion of CD34+CD90+ cells per CB collection (CB CD34+ cells [2]): 486 fold
